Laboratory results taken from patent publication US12384808B2, “Modulators of TNF-α activity” (Forward Therapeutics, Inc., priority 2022, dated 2025).

Target: TNFα (Homo sapiens, UniProt P01375)
Assay: TNFα Induced HEK Blue Cellular Assay
Format: cell-based
Details: HEK Blue TNFα reporter cells, TNFα 100 pg/ml, 24 hrs at 37° C., secreted alkaline phosphatase (QUANTI-Blue) read at 620 nm; read-out: IC50 value
Experimental: TNFα Induced HEK Blue Cellular Assay
Test articles were diluted in DMSO and serially diluted into 384 well assay plate (Corning 3765), at final concentrations ranging from […] to 0.5 nM. HEK Blue™ TNFα reporter cells were added at a final density of 10,000 cell per well in assay media [DMEM (Gibco, cat #21063-029), 10% fetal bovine serum (ExcelBio, cat #FND500), 1% Penicillin-Streptomycin (Solarbio, cat #P1400-100]. TNFα (R&D 210-TA-020/CF) was then added to the assay plate at a final concentration of 100 pg/ml. This plate was then incubated for 24 hrs at 37° C. and 5% CO2. Secreted alkaline phosphatase expression was then measured using QUANTI-Blue™ (Invivogen), according to manufacturer instructions and read on an Envision microplate reader at 620 nm.
Inhibition data for test compound over a range of concentration was plotted as percentage inhibition of the test compound (100%=maximum inhibition). IC50 values were determined after correcting for background [(sample read−mean of low control)/(mean of high control−mean of low control)] where by the low control is DMSO without stimulation and high control is DMSO with stimulation. The IC50 is defined as the concentration of test compound which produces 50% inhibition and was quantified using the 4 parameter logistic equation to fit the data.

Chain of TNFα (P01375 77-233 limits assumed): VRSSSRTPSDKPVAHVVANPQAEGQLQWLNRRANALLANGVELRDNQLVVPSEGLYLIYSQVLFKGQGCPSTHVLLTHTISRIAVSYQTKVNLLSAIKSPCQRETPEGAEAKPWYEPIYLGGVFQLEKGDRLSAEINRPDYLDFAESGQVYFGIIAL

Row | SMILES | IC50 [nM]
1 | CN1C(=O)c2cccc(OC(F)F)c2[C@H]2C[C@@H]1c1nc3ccc(-c4cnc(P(C)(C)=O)c(F)c4)cc3n12 [Example 4, (7R,14R)-1-(difluoromethoxy)-11-(6-(dimethylphosphoryl)-5-fluoropyridin-3-yl)-6-methyl-6,7-dihydro-7,14-methanobenzo[f]benzo[4,5]imidazo[1,2-a][1,4]diazocin-5(14H)-one] | < 100
2 | CN1C(=O)c2cccc(OC(F)F)c2[C@H]2C[C@@H]1c1nc3ccc(-c4ccc(P5(=O)CCCC5)nc4)cc3n12 [Example 5, (1R,11R)-18-(difluoromethoxy)-12-methyl-5-[6-(1-oxo-1lambda5-phospholan-1-yl)pyridin-3-yl]-2,9,12-triazapentacyclo[9.8.1.0^{2,10}.0^{3,8}.0^{14,19}]icosa-3(8),4,6,9,14(19),15,17-heptaen-13-one] | < 100
3 | CN1C(=O)c2cccc(OC(F)F)c2[C@H]2C[C@@H]1c1nc3ccc(-c4ccc(P5(=O)CCOCC5)nc4)cc3n12 [Example 6, (1R,11R)-18-(difluoromethoxy)-12-methyl-5-[6-(4-oxo-1,4lambda5-oxaphosphinan-4-yl)pyridin-3-yl]-2,9,12-triazapentacyclo[9.8.1.0^{2,10}.0^{3,8}.0^{14,19}]icosa-3(8),4,6,9,14(19),15,17-heptaen-13-one] | < 100
4 | CN1C(=O)c2cccc(OC(F)F)c2[C@H]2C[C@@H]1c1nc3ccc(-c4ccc(OCP(C)(C)=O)nc4)cc3n12 [Example 7, (1R,11R)-18-(difluoromethoxy)-5-{6-[(dimethylphosphoryl)methoxy]pyridin-3-yl}-12-methyl-2,9,12-triazapentacyclo[9.8.1.0^{2,10}.0^{3,8}.0^{14,19}]icosa-3(8),4,6,9,14(19),15,17-heptaen-13-one] | < 100
5 | CN1C(=O)c2cccc(OC(F)F)c2[C@H]2C[C@@H]1c1nc3ccc(-c4cnc(P(C)(C)=O)nc4)cc3n12 [Example 8, (1R,11R)-18-(difluoromethoxy)-5-[2-(dimethylphosphoryl)pyrimidin-5-yl]-12-methyl-2,9,12-triazapentacyclo[9.8.1.0^{2,10}.0^{3,8}.0^{14,19}]icosa-3(8),4,6,9,14(19),15,17-heptaen-13-one] | 100 to 1000
6 | CN1C(=O)c2cccc(OC(F)F)c2[C@H]2C[C@@H]1c1nc3ccc(-c4cnc(OCP(C)(C)=O)nc4)cc3n12 [Example 9, (1R,11R)-18-(difluoromethoxy)-5-{2-[(dimethylphosphoryl)methoxy]pyrimidin-5-yl}-12-methyl-2,9,12-triazapentacyclo[9.8.1.0^{2,10}.0^{3,8}.0^{14,19}]icosa-3(8),4,6,9,14(19),15,17-heptaen-13-one] | 100 to 1000
7 | CN1C(=O)c2cccc(OC(F)F)c2[C@H]2C[C@@H]1c1nc3ccc(-c4cnc(OCP(C)(C)=O)c(F)c4)cc3n12 [Example 10, (1R,11R)-18-(difluoromethoxy)-5-{6-[(dimethylphosphoryl)methoxy]-5-fluoropyridin-3-yl}-12-methyl-2,9,12-triazapentacyclo [9.8.1.0^{2,10}.0^{3,8}.0^{14,19}]icosa-3(8),4,6,9,14(19),15,17-heptaen-13-one] | < 100
8 | CP(C)(=O)COc1ccc(-c2ccc3nc4n(c3c2)[C@@H]2C[C@H]4NC(=O)c3cccc(OC(F)F)c32)cn1 [Example 11, (1R,11R)-18-(difluoromethoxy)-5-{6-[(dimethylphosphoryl)methoxy]pyridin-3-yl}-2,9,12-triazapentacyclo[9.8.1.0^{2,10}.0^{3,8}.0^{14,19}]icosa-3(8),4,6,9,14(19),15,17-heptaen-13-one] | 1000 to 10000
9 | CP(C)(=O)COc1ncc(-c2ccc3nc4n(c3c2)[C@@H]2C[C@H]4NC(=O)c3cccc(OC(F)F)c32)cn1 [Example 12, (1R,11R)-18-(difluoromethoxy)-5-(2-[(dimethylphosphoryl)methoxy]pyrimidin-5-yl)-2,9,12-triazapentacyclo[9.8.1.0^{2,10}.0^{3,8}.0^{14,19}]icosa-3(8),4,6,9,14(19),15,17-heptaen-13-one] | 1000 to 10000
10 | CN1C(=O)c2cccc(OC(F)F)c2[C@H]2C[C@@H]1c1nc3ccc(-c4ccc(P(C)(C)=O)cc4)cc3n12 [Example 13, (1R,11R)-18-(difluoromethoxy)-5-[4-(dimethylphosphoryl)phenyl]-12-methyl-2,9,12-triazapentacyclo[9.8.1.0^{2,10}.0^{3,8}.0^{14,19}]icosa-3(8),4,6,9,14(19),15,17-heptaen-13-one] | < 100
11 | CN1C(=O)c2cccc(OC(F)F)c2[C@H]2C[C@@H]1c1nc3ccc(-c4ccc(P(C)(C)=O)c(F)c4)cc3n12 [Example 14, (1R,11R)-18-(difluoromethoxy)-5-[4-(dimethylphosphoryl)-3-fluorophenyl]-12-methyl-2,9,12-triazapentacyclo[9.8.1.0^{2,10}.0^{3,8}.0^{14,19}]icosa-3(8),4,6,9,14(19),15,17-heptaen-13-one] | < 100
12 | [2H]C([2H])([2H])N1C(=O)c2cccc(OC(F)F)c2[C@H]2C[C@@H]1c1nc3ccc(-c4ccc(OCP(C)(C)=O)nc4)cc3n12 [Example 15, (7R,14R)-1-(difluoromethoxy)-11-(6-((dimethylphosphoryl)methoxy)pyridin-3-yl)-6-(methyl-d3)-6,7-dihydro-7,14-methanobenzo[f]benzo[4,5]imidazo[1,2-a][1,4]diazocin-5(14H)-one] | < 100
13 | CN1C(=O)c2cccc(OC(F)F)c2[C@H]2C[C@@H]1c1nc3ccc(-c4cnc(NCP(C)(C)=O)c(F)c4)cc3n12 [Example 16, (1R,11R)-18-(difluoromethoxy)-5-(6-{[(dimethylphosphoryl)methyl]amino}-5-fluoropyridin-3-yl)-12-methyl-2,9,12-triazapentacyclo[9.8.1.0^{2,10}.0^{3,8}.0^{14,19}]icosa-3(8),4,6,9,14(19),15,17-heptaen-13-one] | < 100
14 | [2H]C([2H])([2H])N1C(=O)c2cccc(OC(F)F)c2[C@H]2C[C@@H]1c1nc3ccc(-c4ccc(P(C)(C)=O)nc4)cc3n12 [Example 17, (7R,14R)-1-(difluoromethoxy)-11-(6-(dimethylphosphoryl)pyridin-3-yl)-6-(methyl-d3)-6,7-dihydro-7,14-methanobenzo[f]benzo[4,5]imidazo[1,2-a][1,4]diazocin-5(14H)-one] | < 100
15 | CN1C(=O)c2cccc(OC(F)F)c2[C@H]2C[C@@H]1c1nc3ccc(-c4ccc(OCP(C)(C)=O)c(F)c4)cc3n12 [Example 18, (1R,11R)-18-(difluoromethoxy)-5-{4-[(dimethylphosphoryl)methoxy]-3-fluorophenyl}-12-methyl-2,9,12-triazapentacyclo[9.8.1.0^{2,10}.0^{3,8}.0^{14,19}]icosa-3(8),4,6,9,14(19),15,17-heptaen-13-one] | < 100
16 | CCN1C(=O)c2cccc(OC(F)F)c2[C@H]2C[C@@H]1c1nc3ccc(-c4ccc(P(C)(C)=O)nc4)cc3n12 [Example 19, (1R,11R)-18-(difluoromethoxy)-5-[6-(dimethylphosphoryl)pyridin-3-yl]-12-ethyl-2,9,12-triazapentacyclo[9.8.1.0^{2,10}.0^{3,8}.0^{14,19}]icosa-3(8),4,6,9,14(19),15,17-heptaen-13-one] | < 100
17 | CN1C(=O)c2cccc(OC(F)F)c2[C@H]2C[C@@H]1c1nc3ccc(-c4cnn(CP(C)(C)=O)c4)cc3n12 [Example 21, (1R,11R)-18-(difluoromethoxy)-5-{1-[(dimethylphosphoryl)methyl]pyrazol-4-yl}-12-methyl-2,9,12-triazapentacyclo[9.8.1.0^{2,10}.0^{3,8}.0^{14,19}]icosa-3(8),4,6,9,14(19),15,17-heptaen-13-one] | 100 to 1000
18 | CN1C(=O)c2cccc(OC(F)F)c2[C@H]2C[C@@H]1c1nc3ccc(-c4ccc(CP(C)(C)=O)nc4)cc3n12 [Example 22, (1R,11R)-18-(difluoromethoxy)-5-{6-[(dimethylphosphoryl)methyl]pyridin-3-yl}-12-methyl-2,9,12-triazapentacyclo[9.8.1.0^{2,10}.0^{3,8}.0^{14,19}]icosa-3(8),4,6,9,14(19),15,17-heptaen-13-one] | < 100
19 | CN1C(=O)c2cccc(OC(F)F)c2[C@H]2C[C@@H]1c1nc3ccc(-c4ccc(NCP(C)(C)=O)nc4)cc3n12 [Example 23, (1R,11R)-18-(difluoromethoxy)-5-(6-{[(dimethylphosphoryl)methyl]amino}pyridin-3-yl)-12-methyl-2,9,12-triazapentacyclo[9.8.1.0^{2,10}.0^{3,8}.0^{14,19}]icosa-3(8),4,6,9,14(19),15,17-heptaen-13-one] | < 100
20 | [2H]C([2H])([2H])N1C(=O)c2cccc(OC(F)F)c2[C@H]2C[C@@H]1c1nc3ccc(-c4ccc(P(C)(C)=O)c(F)c4)cc3n12 [Example 24, (7R,14R)-1-(difluoromethoxy)-11-(4-(dimethylphosphoryl)-3-fluorophenyl)-6-(methyl-d3)-6,7-dihydro-7,14-methanobenzo[f]benzo[4,5]imidazo[1,2-a][1,4]diazocin-5(14H)-one] | < 100
21 | CN1C(=O)c2cccc(OC(F)F)c2[C@H]2C[C@@H]1c1nc3ccc(-c4cnc(OCP(C)(C)=O)s4)cc3n12 [Example 25, (1R,11R)-18-(difluoromethoxy)-5-{2-[(dimethylphosphoryl)methoxy]-1,3-thiazol-5-yl}-12-methyl-2,9,12-triazapentacyclo[9.8.1.0^{2,10}.0^{3,8}.0^{14,19}]icosa-3(8),4,6,9,14(19),15,17-heptaen-13-one] | < 100
